The record followed here is EP0973766B1, “QUINOXALINEDIONES” (Pfizer Limited, priority 1997, dated 1998).

SMILES strings stand for the structures.

The data set is described as follows: Lipophilicity by the octanol/water partition method.

The logD is lipophilicity at a set pH, counting ionised and neutral species. Low values mean a more hydrophilic compound, high ones a more lipophilic compound. Turning to `COCc1nnc(-c2ccc[n+]([O-])c2)n1-c1c(Cl)c(Cl)cc2[nH]c(=O)c(=O)[nH]c12` [Example 2, (-)-6,7-Dichloro-5-[3-methoxymethyl-5-(1-oxidopyridin-3-yl)-4H-1,2,4-triazol-4-yl]-2,3(1H,4H)-quinoxalinedione hydrate], the pH-dependent lipophilicity (logD) was -1.7.
